Measured values from ChEMBL document CHEMBL5537195, “Novel Covalent Probe Selectively Targeting Glutathione Peroxidase 4 In Vivo: Potential Applications in Pancreatic Cancer Therapy” (J Med Chem, 2024).
The source made the active and inactive calls. No cut-off for these calls is given here.

Tests used:
[1] = molecular target: T1, Phospholipid hydroperoxide glutathione peroxidase GPX4 (Homo sapiens) (UniProt P36969); assay: Binding affinity to GPX4 in human PANC-1 cells at 0.2 uM incubated for 1 hr by SDS-PAGE analysis; format: cell-based
T1 sequence (whole entry): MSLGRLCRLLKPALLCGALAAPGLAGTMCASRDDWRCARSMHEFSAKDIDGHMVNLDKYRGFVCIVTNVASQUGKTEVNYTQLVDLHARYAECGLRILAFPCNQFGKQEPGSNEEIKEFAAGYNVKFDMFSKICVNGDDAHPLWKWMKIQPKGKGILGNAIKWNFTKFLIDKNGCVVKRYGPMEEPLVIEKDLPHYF

[2] = molecular target: T1, Phospholipid hydroperoxide glutathione peroxidase GPX4 (Homo sapiens); assay: Binding affinity to GPX4 in human ASPC1 cells at 0.2 uM incubated for 12 hr followed by compound washout by SDS-PAGE analysis; format: cell-based
[3] = system: MIA PaCa-2; assay: Antiproliferative activity against human MIA PaCa-2 cells assessed as inhibition of cell growth incubated for 72 hrs by CCK-8 assay; format: functional, cell-based; details: MIA PaCa-2, 72 h
[4] = system: ASPC1; assay: Induction of ferroptosis in human ASPC1 cells assessed as reduction in cell viability incubated for 48 hrs followed by compound washout by CCK-8 assay; format: functional, cell-based; details: ASPC1, 48 h
[5] = system: Capan-2; assay: Antiproliferative activity against human Capan-2 cells assessed as inhibition of cell growth incubated for 72 hrs by CCK-8 assay; format: functional, cell-based
[6] = molecular target: T1, Phospholipid hydroperoxide glutathione peroxidase GPX4 (Homo sapiens); assay: Binding affinity to GPX4 in human HPAF-II cells at 0.2 uM incubated for 1 hr by SDS-PAGE analysis; format: cell-based
[7] = system: ASPC1; assay: Antitumor activity against human ASPC1 cells xenografted in NOD-SCID mouse assessed as reduction in tumor volume at 10 mg/kg, ip administered for 14 days; format: functional, organism-based; details: time 14.0 day
[8] = molecular target: T1, Phospholipid hydroperoxide glutathione peroxidase GPX4 (Homo sapiens); assay: Competitive binding affinity to GPX4 in human ASPC1 cells at 0.2 uM incubated for 1 hr in presence of ML210 by immunofluorescence based confocal microscopic analysis; format: cell-based
[9] = molecular target: T1, Phospholipid hydroperoxide glutathione peroxidase GPX4 (Homo sapiens); assay: Binding affinity to GPX4 in human Capan-2 cells at 0.2 uM incubated for 1 hr by SDS-PAGE analysis; format: cell-based
[10] = system: ASPC1; assay: Induction of ferroptosis in human ASPC1 cells assessed as reduction in cell viability incubated for 24 hrs by CCK-8 assay; format: functional, cell-based; details: ASPC1, 24 h
[11] = molecular target: T1, Phospholipid hydroperoxide glutathione peroxidase GPX4 (Homo sapiens); assay: Binding affinity to GPX4 in human Hs766T cells at 0.2 uM incubated for 1 hr by SDS-PAGE analysis; format: cell-based
[12] = molecular target: T1, Phospholipid hydroperoxide glutathione peroxidase GPX4 (Homo sapiens); assay: Binding affinity to GPX4 in human CFPAC-1 cells at 0.2 uM incubated for 1 hr by SDS-PAGE analysis; format: cell-based
[13] = system: ASPC1; assay: Induction of ferroptosis in human ASPC1 cells assessed as reduction in cell viability incubated for 72 hrs followed by compound washout by CCK-8 assay; format: functional, cell-based; details: ASPC1, 72 h
[14] = system: ASPC1; assay: Induction of ferroptosis in human ASPC1 cells with siRNA mediated GPX4 knockdown assessed as reduction in cell viability incubated for 72 hrs by CCK-8 assay; format: functional, cell-based
[15] = molecular target: T1, Phospholipid hydroperoxide glutathione peroxidase GPX4 (Homo sapiens); assay: Binding affinity to GPX4 in human MIA PaCa-2 cells at 0.2 uM incubated for 1 hr by SDS-PAGE analysis; format: cell-based
[16] = AUC (0 to t) in Sprague-Dawley rat at 2 mg/kg, iv measured upto 48 hrs by LC-MS/MS analysis; format: ADME, organism-based; details: in vivo
[17] = Toxicity in NOD-SCID mouse xenografted with human ASPC1 cells assessed as body weight loss at 10 mg/kg, ip administered for once daily for 14 days; format: organism-based; details: in vivo, 336 h, time 14 day
[18] = molecular target: T1, Phospholipid hydroperoxide glutathione peroxidase GPX4 (Homo sapiens); assay: Binding affinity to GPX4 in human SW1990 cells at 0.2 uM incubated for 1 hr by SDS-PAGE analysis; format: cell-based
[19] = system: SW1990; assay: Antiproliferative activity against human SW1990 cells assessed as inhibition of cell growth incubated for 72 hrs by CCK-8 assay; format: functional, cell-based; details: SW1990, 72 h
[20] = molecular target: T2, Fructose-bisphosphate aldolase A (Homo sapiens) (UniProt P04075); assay: Binding affinity to ALDOA in human ASPC1 cells at 1 uM incubated for 5 hrs by Western blot analysis; format: cell-based
T2 sequence (whole entry): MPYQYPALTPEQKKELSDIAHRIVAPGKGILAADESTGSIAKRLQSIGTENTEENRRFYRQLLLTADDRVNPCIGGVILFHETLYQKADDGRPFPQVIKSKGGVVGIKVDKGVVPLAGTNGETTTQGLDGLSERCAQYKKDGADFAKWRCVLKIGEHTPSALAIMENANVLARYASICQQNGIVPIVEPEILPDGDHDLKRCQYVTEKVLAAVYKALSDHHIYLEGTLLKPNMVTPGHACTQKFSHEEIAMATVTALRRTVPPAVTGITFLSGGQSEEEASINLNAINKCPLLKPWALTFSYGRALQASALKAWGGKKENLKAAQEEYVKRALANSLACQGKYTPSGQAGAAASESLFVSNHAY

[21] = molecular target: Large ribosomal subunit protein eL28 (Homo sapiens) (UniProt P46779); assay: Binding affinity to RL28 in human ASPC1 cells at 1 uM incubated for 5 hrs by Western blot analysis; format: cell-based
[22] = molecular target: T1, Phospholipid hydroperoxide glutathione peroxidase GPX4 (Homo sapiens); assay: Binding affinity to GPX4 in human ASPC1 cells assessed as thermal stability at 10 uM at 43 to 64 degreeC for 3 mins by CETSA analysis; format: cell-based
[23] = system: ASPC1; assay: Induction of ferroptosis in human ASPC1 cells assessed as effect on ROS level at 1 uM incubated for 3 hrs in absence of […]; format: functional, cell-based
[24] = molecular target: T1, Phospholipid hydroperoxide glutathione peroxidase GPX4 (Homo sapiens); assay: Competitive binding affinity to GPX4 in human ASPC1 cells at 0.2 uM incubated for 1 hr in presence of ML162; format: cell-based
[25] = Cmax in Sprague-Dawley rat at 2 mg/kg, iv measured upto 48 hrs by LC-MS/MS analysis; format: ADME, organism-based; details: in vivo
[26] = molecular target: T1, Phospholipid hydroperoxide glutathione peroxidase GPX4 (Homo sapiens); assay: Competitive binding affinity to GPX4 in human ASPC1 cells at 0.2 uM incubated for 1 hr in presence of 4-(((4-(benzo[d]thiazol-2-yl)phenyl)(methyl)amino)methyl)-N-ethynyl-N-methylbenzenesulfonamide by immunofluorescence based confocal microscopic analysis; format: cell-based
[27] = molecular target: T3, Phosphoglycerate kinase 1 (Homo sapiens) (UniProt P00558); assay: Binding affinity to PGK1 in human ASPC1 cells at 1 uM incubated for 5 hrs by Western blot analysis; format: cell-based
T3 sequence (whole entry): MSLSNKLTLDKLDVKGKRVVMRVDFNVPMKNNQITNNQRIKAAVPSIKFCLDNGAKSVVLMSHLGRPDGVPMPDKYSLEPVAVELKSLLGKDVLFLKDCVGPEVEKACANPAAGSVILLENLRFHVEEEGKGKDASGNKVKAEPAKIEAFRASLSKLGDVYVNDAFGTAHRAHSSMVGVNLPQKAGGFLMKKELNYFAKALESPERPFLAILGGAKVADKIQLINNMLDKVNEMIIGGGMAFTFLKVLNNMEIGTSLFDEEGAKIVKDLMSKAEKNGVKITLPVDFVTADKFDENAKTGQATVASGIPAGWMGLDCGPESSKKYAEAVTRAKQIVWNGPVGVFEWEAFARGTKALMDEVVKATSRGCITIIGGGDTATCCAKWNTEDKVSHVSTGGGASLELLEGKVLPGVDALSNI

## C#CCN(Cc1ccc(S(=O)(=O)N(C)C#C)cc1)c1ccc(-c2nc3ccccc3s2)cc1
[1]
  Activity: Active
[2]
  Activity: Active
[3]
  IC50: 20 nM
[4]
  IC50: 33 nM
[5]
  Activity: inactive
[6]
  Activity: Active
[7]
  Activity: Active
[8]
  Activity: inactive
[9]
  Activity: inactive
[10]
  IC50: 37 nM
[11]
  Activity: Active
[12]
  Activity: Active
[13]
  IC50: 29 nM
[14]
  Activity: Active
[15]
  Activity: Active
[16]
  AUC(0-t) at 48 h: 915 ng·h/mL
[17]
  Activity: Non-Toxic
[18]
  Activity: Active
[19]
  IC50: 20 nM
[20]
  Activity: Active
[21]
  Activity: Active
[22]
  Activity: Active
[23]
  Activity: Active
[24]
  Activity: Active
[25]
  Cmax: 2250 ng/mL
[26]
  Activity: inactive
[27]
  Activity: Active
